Results reported in patent publication US5318980A, “Sulphonylbenzyl-substituted imidazoles” (Bayer Aktiengesellschaft, priority 1992, dated 1994).

The molecules below were run against T1, Angiotensin II receptor (Bos taurus, UniProt P25104) (assay: Interaction with the angiotensin II receptor on membrane fractions of the adrenal cortex (cattle), 3H-angiotensin II bonding). Conditions: bovine adrenal cortex membranes; 3H-angiotensin II (3-5 nM); 60 minutes at room temperature.
T1 construct: carried out on partly purified membrane fractions of bovine AC with radioactive angiotensin II; from tissue; host or cells: bovine adrenal cortex, freed from medulla, partly purified membrane fractions
T1 sequence (P25104 1-359): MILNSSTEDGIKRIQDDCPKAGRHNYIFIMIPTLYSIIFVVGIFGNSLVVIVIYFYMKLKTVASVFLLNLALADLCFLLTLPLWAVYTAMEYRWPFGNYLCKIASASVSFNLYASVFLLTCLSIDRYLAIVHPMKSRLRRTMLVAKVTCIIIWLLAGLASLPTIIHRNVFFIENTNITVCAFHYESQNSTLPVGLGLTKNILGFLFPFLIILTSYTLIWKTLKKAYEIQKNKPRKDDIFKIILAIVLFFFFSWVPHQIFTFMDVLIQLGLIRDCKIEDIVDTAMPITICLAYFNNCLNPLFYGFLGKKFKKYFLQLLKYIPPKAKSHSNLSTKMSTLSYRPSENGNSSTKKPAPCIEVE
Type: binding
Method: Adrenal cortices from cattle (AC), which are freshly removed and carefully freed from medulla from the capsule, are comminuted to a coarse membrane homogenate in sucrose solution (0.32M) with the aid of an Ultra-Turrax (Janke & Kunkel, Staufen i.B.), and the homogenate is partly purified to membrane fractions in two centrifugation steps.
The investigations on receptor bonding are carried out on partly purified membrane fractions of bovine AC with radioactive angiotensin II in an assay volume of 0.25 ml, which specifically contains the partly purified membranes (50-80 μg), ^3 H-angiotensin II (3-5 nM), test buffer solution (50 mM Tris, pH 7.2), 5 mM MgCl2 and the substances to be investigated. After an incubation time of 60 minutes at room temperature, the non-bonded radioactivity of the samples is separated off by means of moistened glass fibre filters (Whatman GF/C), and, after the protein has been washed with ice-cold buffer solution (50 mM Tris/HCl, pH 7.4, 5% PEG 6000), the radioactivity bonded is measured […] in a scintillation cocktail. The raw data were analysed with computer programs to give Ki and IC50 values (Ki : IC50 values corrected for the radioactivity used; IC50 values: concentration at which the substance to be investigated causes 50% inhibition of specific bonding of the radioligand).

Ki [nM]	Structure (SMILES)
400	CCCCc1nc(Cl)c(C(=O)O)n1Cc1ccc(S(=O)(=O)N2CCC[C@H]2C(=O)O)cc1 [Example 15]
200	CCCCc1nc(Cl)c(C(=O)O)n1Cc1ccc(S(=O)(=O)N2CCCCC2C(=O)OC(C)(C)C)cc1Cl (stereo not drawn) [Example 18]

The molecules below were run on isolated aortic rings of rabbits, contraction induced by AII (assay: Inhibition of angiotensin II-induced contraction on isolated aortic rings of rabbits in vitro). Conditions: Oryctolagus cuniculus, 3rd=submaximum agonist concentration, read-out: IC50 against contractions induced by AII.
Type: cell-based, rabbit
Method: Rabbits of both sexes are stunned by a blow to the neck and exsanguinated or, where appropriate, anaesthetised with Nembutal (about 60-80 mg/kg i.v.) and sacrificed by opening the thorax. The thoracic aorta is removed, freed from attached connective tissue and divided into ring segments 1.5 mm wide, and the segments are introduced individually, under an initial load of about 3.5 g, into 10 ml organ baths containing carbogen-gassed KrebsHenseleit nutrient solution thermostatically controlled at 37° C. and having the following composition: 119 mmol/l of NaCl; 2.5 mmol/l of CaCl2 ×2 H2 O; 1.2 mmol/l to KH2 PO4; 10 mmol/l of glucose; 4.8 mmol/l of KCl; 1.4 mmol/l of MgSO4 ×7 H2 O and 25 mmol/l of NaHCO3.
The contractions are recorded isometrically by Statham UC2 cells via a bridge amplifier (ifd Mulheim or DSM Aalen), and are digitalised and evaluated by means of an A/D converter (system 570, Keithley Munich). The agonist dose/effect curves (DEC) are plotted hourly. For each DEC, 3 or 4 individual concentrations are applied to the baths at intervals of 4 minutes. The DEC and subsequent wash-out cycles (16 times for about 5 sec/min each with the above nutrient solution) are followed by a 28-minute resting or incubation phase, within which the contractions as a rule reach the starting value again.
The level of the 3rd DEC in the normal case is used as a reference parameter for evaluating the test substance which is to be investigated in subsequent passes and, for the subsequent DECs, is applied to the baths at the start of the incubation time in a dosage which increases each time. Each aortic ring is stimulated with always the same agonist over the entire day.
Agonists and their standard concentrations (application
The effect in each case at the 3rd=submaximum agonist concentration is taken as a basis for calculation of the IC50 (concentration at which the substance to be investigated causes 50% inhibition).

Structure (SMILES)	IC50 [nM]
CCCCc1nc(Cl)c(C(=O)O)n1Cc1ccc(S(=O)(=O)N2CCC[C@H]2C(=O)O)cc1 [Example 15]	202
CCCCc1nc(Cl)c(C(=O)O)n1Cc1ccc(S(=O)(=O)N2CCCCC2C(=O)O)cc1Cl (stereo not drawn) [Example 16]	309

Next, values leading:

IC50 [nM]	Structure (SMILES)
44	CCCCc1nc(Cl)c(CO)n1Cc1ccc(S(=O)(=O)N2CCC[C@H]2C(=O)O)cc1Cl [Example 19]
250	CCCCc1nc(Cl)c(CO)n1Cc1ccc(S(=O)(=O)N2CCC[C@H]2C(=O)O)cc1 [Example 21]
5	CCCCc1nc(Cl)c(C(=O)O)n1Cc1ccc(S(=O)(=O)N2CCCCC2C(=O)O)cc1 (stereo not drawn) [Example 25]

The molecules below were run on smooth muscle cells (assay: Inhibition of the proliferation of smooth muscle cells (3H-thymidine incorporation)). Conditions: at 10^-6 M (so in the source); growth stimulated with AII, serum or other factors.
Type: cell-based, rats or pigs
Method: Smooth muscle cells which are obtained from the aortas of rats or pigs by the media explantate technique are used to determine the antiproliferative action of the compounds [R. Ross, J. Cell. Biol. 50, 172, 1971]. The cells are sown in suitable culture dishes, as a rule 24-hole plates, and cultured for 2-3 days in medium 199 containing 7.5% of FCS and 7.5% of NCS, 2 mM of L-glutamine and 15 mM of HEPES, pH 7.4, in 5% CO2 at 37° C. Thereafter, the cells are synchronised by serum withdrawal for 2-3 days and then stimulated to growth with AII, serum or other factors. Test compounds are added at the same time. After 16-20 hours, 1 μCi of ^3 H-thymidine is added, and after a further 4 hours, the incorporation of this substance into the TCA-precipitatable DNA of the cells is determined.

Structure (SMILES)	% inhibition at 10^6 M [%]
CCCCc1nc(Cl)c(CO)n1Cc1ccc(S(=O)(=O)N2CCCCC2)cc1 [Example 11]	20
CCCCc1nc(Cl)c(CO)n1Cc1ccc(S(=O)(=O)N2CCC[C@H]2C(=O)OC(C)(C)C)cc1Cl [Example 12]	70
